Data reported in patent US10036052B2, “Method for producing biogenic substances” (BRANDENBURGISCHE TECHNISCHE UNIVERSITÄT COTTBUS-SENFTENBERG, priority 2013, dated 2018).

System: HepaFH3 (proliferation-competent liver cells)
Conditions: human, 100 μM
Experimental: HepG2 cells (ATCC HB-8065) are cultivated in the medium DMEM PAA (Pasching, Austria), to which is added 10% FCS Gold, 2 mM L-glutamine, 100 U/mL penicillin, and 0.1 mg/mL streptomycin. Primary human hepatocytes (pHHs) are commercially obtained from, e.g., TebuBio (Le Perray-en-Yvelines, France) or Promocell (Heidelberg, Germany). The cells are seeded onto 50 μg/mL collagen type I (rat tail, BD Biosciences, San Jose, USA) coated cell culture plates and cultivated at 37° C. under 5% CO2 in hepatocyte growth medium (Promocell GmbH, Heidelberg, Germany) or equivalent cell culture media of other manufacturers known to the person skilled in the art. These pHHs can be used for metabolite production immediately or after production of proliferation-competent liver cells. To accomplish this, proliferation genes are transduced into the cells using a lentiviral vector. This technique is described in WO2009/030217A2 (Braspenning et al. (2007)). […] The proliferating hepatocyte clones (cell lines) are characterized with respect to their liver cell markers. […] For definition of sequences to generate primers, the person skilled in the art can use databases such as the NCBI GenBank® (http://www.ncbi.nlm.nih.gov/genbank) or the European Nucleotide Archive (http://www.ebi.ac.uk/ena/). For phase I, the most relevant enzymes are those of the cytochrome P450 (CYP) family. […]

SMILES: O=C(O)Cc1ccccc1Nc1c(Cl)cccc1Cl [Diclofenac]
- Metabolite 4′-OH-diclofenac formed: 7.13 ± 2.22 pmol/(min*10^6 cells)
